The values below come from patent EP1914236A1 (Ortho-McNeil Pharmaceutical, Inc., priority 2002, dated 2003).

The structures appear in SMILES notation.

The assay has as its target T1, human B2 bradykinin receptors (Homo sapiens, UniProt P30411).
T1 construct: purchased Receptor Biology, Inc. (Baltimore, MD); host or cells: CHO-K1 cells transfected with the human B2 receptor (membranes)
T1 sequence (P30411 1-391): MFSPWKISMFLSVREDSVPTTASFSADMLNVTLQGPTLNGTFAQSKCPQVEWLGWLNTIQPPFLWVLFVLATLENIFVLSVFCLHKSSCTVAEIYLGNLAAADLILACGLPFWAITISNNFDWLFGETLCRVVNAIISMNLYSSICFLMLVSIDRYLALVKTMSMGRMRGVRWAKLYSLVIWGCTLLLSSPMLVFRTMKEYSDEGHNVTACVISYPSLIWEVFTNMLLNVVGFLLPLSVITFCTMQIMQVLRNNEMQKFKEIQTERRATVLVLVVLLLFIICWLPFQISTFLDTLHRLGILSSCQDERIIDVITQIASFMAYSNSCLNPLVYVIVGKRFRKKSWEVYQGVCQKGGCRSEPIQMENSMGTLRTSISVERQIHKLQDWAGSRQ
As to the kind of experiment: Bradykinin B2 (BK2) Receptor Binding Assay. Particulars: membranes of CHO-K1 cells transfected with human B2 bradykinin receptors; ~0.25 nM [3H]NPC17731; 60 min at 25°C. As for the experimental part: Cell membranes of CHO-K1 cells transfected with human B2 bradykinin receptors (CH)-hB2) were purchased from Receptor Biology, Inc. (Baltimore,MD).
Samples were harvested on a Brandel Cell Harvester on to Wallac filtermat B sheets (96 sample format), and washed three times with 2 mL cold HEPES-buffer (10 mM, pH 7.5), and dried in a microwave oven.
The data were used to calculate either the % inhibition compared to control binding (when only a single concentration of test compound was evaluated) or a Ki value (when a range of concentrations were tested). Background was subtracted from mean cpm values and % inhibition was calculated as: [(total dpm-test compound dpm)/(total dpm-nonspecific dpm)]x100. Kd and Ki values were calculated using GraphPad PRISM data analysis program.
What is called Ki is the dissociation constant of the complex between target and ligand, obtained from inhibition or displacement. `Cc1ccc2cccc(OCc3c(Cl)ccc(N(C)C(=O)Cc4ccc(C(=O)c5cccnc5)n4C)c3Cl)c2n1` [Compound 33] came in with a Ki of 1.39 µM. In turn, `Cc1ccc2cccc(OCc3c(Cl)ccc(N(C)C(=O)Cc4ccc(C(=O)c5ccc(F)cc5)n4C)c3Cl)c2n1` [Compound 34] registered a Ki of 1.15 µM. In turn, `Cc1ccc2cccc(OCc3c(Cl)ccc(N(C)C(=O)Cc4ccc(C(=O)c5ccc(Br)cc5)n4C)c3Cl)c2n1` [Compound 35] yielded a Ki of 1.05 µM. In the case of `CC(=O)Nc1ccccc1C(=O)c1ccc(CC(=O)N(C)c2ccc(Cl)c(COc3cccc4ccc(C)nc34)c2Cl)n1C` [Compound 36] it was 0.869 µM; in that of `Cc1ccc2cccc(OCc3c(Cl)ccc(N(C)C(=O)Cc4ccc(C(=O)CN5CCCC5)n4C)c3Cl)c2n1` [Compound 37], 0.846 µM; in that of `Cc1ccc2cccc(OCc3c(Cl)ccc(N(C)C(=O)Cc4ccc(C(=O)c5cccc6ccccc56)n4C)c3Cl)c2n1` [Compound 38], 0.807 µM. `CC(C)=CC(=O)c1ccc(CC(=O)N(C)c2ccc(Cl)c(COc3cccc4ccc(C)nc34)c2Cl)n1C` [Compound 39] had an inhibition constant Ki of 0.784 µM. With `Cc1ccc2cccc(OCc3c(Cl)ccc(N(C)C(=O)Cc4ccc(C(=O)c5ccc(Cl)cc5)n4C)c3Cl)c2n1` [Compound 40] the figure was 0.752 µM; with `Cc1ccc2cccc(OCc3c(Cl)ccc(N(C)C(=O)Cc4ccc(C(=O)c5ccc(C)s5)n4C)c3Cl)c2n1` [Compound 41], 0.704 µM. With `Cc1ccc2cccc(OCc3c(Cl)ccc(N(C)C(=O)Cc4ccc(C(=O)c5cccc([N+](=O)[O-])c5)n4C)c3Cl)c2n1` [Compound 42] the figure was 0.688 µM; with `CSc1ccc(C(=O)c2ccc(CC(=O)N(C)c3ccc(Cl)c(COc4cccc5ccc(C)nc45)c3Cl)n2C)s1` [Compound 43], 0.68 µM; with `Cc1ccc2cccc(OCc3c(Cl)ccc(N(C)C(=O)Cc4ccc(C(=O)c5cccc(C#N)c5)n4C)c3Cl)c2n1` [Compound 44], 0.643 µM. `Cc1ccc2cccc(OCc3c(Cl)ccc(N(C)C(=O)Cc4ccc(C(=O)c5ccccn5)n4C)c3Cl)c2n1` [Compound 45] had an inhibition constant (Ki) of 0.579 µM. Take `Cc1ccc2cccc(OCc3c(Cl)ccc(N(C)C(=O)Cc4ccc(C(=O)c5ccc(CN6CCCC6)cc5)n4C)c3Cl)c2n1` [Compound 46, N-[2,4-Dichloro-3-(2-methyl-quinolin-8-yloxymethyl)-phenyl]-N-methyl-2-[l-methyl-5-(4-pyrrolidin-1-ylmethyl-benzoyl)-1H-pyrrol-2-yl]-acetamide]: the affinity, expressed as Ki, was 0.56 µM. Turning to `Cc1ccc2cccc(OCc3c(Cl)ccc(N(C)C(=O)Cc4ccc(C(=O)c5ccc(CN(C)C)cc5)n4C)c3Cl)c2n1` [Compound 47], the Ki was determined as 0.515 µM. This Ki and that of the molecule before are within 1.5-fold of each other.

`CCN(CC)CC(=O)c1ccc(CC(=O)N(C)c2ccc(Cl)c(COc3cccc4ccc(C)nc34)c2Cl)n1C` [Compound 48] showed a Ki of 0.51 µM. The Ki values of the last two molecules are within 1.5-fold of each other. In the case of `Cc1ccc2cccc(OCc3c(Cl)ccc(N(C)C(=O)Cc4ccc(C(=O)CN(C)c5ccccn5)n4C)c3Cl)c2n1` [Compound 49] it was 0.508 µM; in that of `Cc1ccc2cccc(OCc3c(Cl)ccc(N(C)C(=O)Cc4ccc(C(=O)c5ccc6c(c5)OCO6)n4C)c3Cl)c2n1` [Compound 50], 0.583 µM.

Molecule `Cc1ccc2cccc(OCc3c(Cl)ccc(N(C)C(=O)Cc4ccc(C(=O)c5ccc(C(F)(F)F)cc5)n4C)c3Cl)c2n1` [Compound 51] gave a Ki of 0.476 µM.

The molecule `Cc1ccc2cccc(OCc3c(Cl)ccc(N(C)C(=O)Cc4ccc(C(=O)c5cnc(Cl)c(Cl)c5)n4C)c3Cl)c2n1` [Compound 52] yielded a Ki of 0.427 µM. This Ki and that of the molecule before are within 1.5-fold of each other. In the case of `Cc1ccc2cccc(OCc3c(Cl)ccc(N(C)C(=O)Cc4ccc(C(=O)c5ccccc5N)n4C)c3Cl)c2n1` [Compound 53] it was 0.393 µM; in that of `Cc1ccc(C(=O)c2ccc(CC(=O)N(C)c3ccc(Cl)c(COc4cccc5ccc(C)nc45)c3Cl)n2C)cc1` [Compound 54], 0.356 µM; in that of `Cc1ccc2cccc(OCc3c(Cl)ccc(N(C)C(=O)Cc4ccc(C(=O)c5ccsc5)n4C)c3Cl)c2n1` [Compound 55], 0.341 µM. Take `Cc1ccc2cccc(OCc3c(Cl)ccc(N(C)C(=O)Cc4ccc(C(=O)c5ccc(N)cc5)n4C)c3Cl)c2n1` [Compound 56, 2-[5-(4-Amino-benzoyl)-methyl-1H-pyrrol-2-yl]-N-[2,4-dichloro-3-(2-methyl-quinolin-8-yloxymethyl)-phenyl]-N-methyl-acetamide]: the Ki was 0.406 µM.

Regarding `Cc1ccc2cccc(OCc3c(Cl)ccc(N(C)C(=O)Cc4ccc(C(=O)c5cccc(N)c5)n4C)c3Cl)c2n1` [Compound 57], the affinity corresponds to a Ki of 0.361 µM. On to `Cc1ccc2cccc(OCc3c(Cl)ccc(N(C)C(=O)Cc4ccc(C(=O)c5ccc(S(N)(=O)=O)cc5)n4C)c3Cl)c2n1` [Compound 70], for which the inhibitory constant (Ki) was 0.162 µM. This Ki is about 2.2-fold lower than that of the molecule before.

In the case of `CCOc1ccc(C(=O)c2ccc(CCC(=O)N(C)c3ccc(C)c(COc4cccc5ccc(C)nc45)c3C)n2C)cn1` [Compound 86], the Ki was 0.309 µM. With `CCOc1ccc(C(=O)c2ccc(CCC(=O)N(C)c3ccc(Cl)c(COc4cccc5ccc(C)nc45)c3Cl)n2C)cn1` [Compound 87] the figure was 0.143 µM. With `COc1ccc(-c2ccc(CC(=O)N(C)c3ccc(C)c(COc4cccc5ccc(C)nc45)c3C)n2C)cc1` [Compound 96, N-[2,4-Dimethyl-3-(2-methyl-quinolin-8-yloxymethyl)-phenyl]-2-[5-(4-methoxyphenyl)-1-methyl-1H-pyrrol-2-yl]-N-methyl-acetamide] the figure was 2.12 µM; with `Cc1ccc2cccc(OCc3c(C)ccc(N(C)C(=O)Cc4ccc(-c5ccccc5)n4C)c3C)c2n1` [Compound 97, N-[2,4-Dimethyl-3-(2-methyl-quinolin-8-yloxymethyl)-phenyl]-N-methyl-2-(1-methyl-5-phenyl-1 H-pyrrol-2-yl)-acetamide], 7.19 µM. With `Cc1ccc(-c2ccc(CC(=O)N(C)c3ccc(C)c(COc4cccc5ccc(C)nc45)c3C)n2C)cc1` [Compound 98, N-[2,4-Dimethyl-3-(2-methyl-quinolin-8-yloxymethyl)-phenyl]-N-methyl-2-(1-methyl-5-p-tolyl-1H-pyrrol-2-yl)-acetamide] the figure was 3.61 µM. Molecule `Cc1nc2c(OCc3c(Cl)ccc(N(C)C(=O)Cc4ccc(C(=O)c5ccc(C#N)cc5)n4C)c3Cl)cccn2c1Br` [Compound 102, N-[3-(3-Bromo-2-methyl-imidazo[1,2-a]pyridin-8-yloxymethyl)-2,4-dichlorophenyl]-2-[5-(4-cyano-benzoyl)-1-methyl-1H-pyrrol-2-yl]-N-methyl-acetamide] had an inhibition constant Ki of 0.0474 µM. This Ki lies about 76-fold lower than the previous one. In the case of `Cc1nc2c(OCc3c(Cl)ccc(N(C)C(=O)Cc4ccc(C(=O)c5ccc(S(C)(=O)=O)cc5)n4C)c3Cl)cccn2c1Br` [Compound 103, N-[3-(3-Bromo-2-methyl-imidazo[1,2-a]pyridin-8-yloxymethyl)-2,4-dichlorophenyl]-2-[5-(4-methanesulfonyl-benzoyl)-1-methyl-1H-pyrrol-2-yl]-N-methyl-acetamide] it was 0.0685 µM; in that of `Cc1ccc2cccc(OCc3c(C)ccc(N(C)C(=O)CCc4ccc(C(=O)c5ccccc5)s4)c3C)c2n1` [Compound 104], 0.554 µM; in that of `Cc1ccc2cccc(OCc3c(Cl)ccc(N(C)C(=O)CCc4ccc(C(=O)c5ccccc5)s4)c3Cl)c2n1` [Compound 105], 0.882 µM. In the case of `COc1ccc(C(=O)c2ccc(CCC(=O)N(C)c3ccc(C)c(COc4cccc5ccc(C)nc45)c3C)s2)cc1` [Compound 106] it was 0.375 µM. In the case of `COc1ccc(C(=O)c2ccc(CCC(=O)N(C)c3ccc(Cl)c(COc4cccc5ccc(C)nc45)c3Cl)s2)cc1` [Compound 107] it was 0.321 µM. Regarding `Cc1ccc2cccc(OCc3c(Cl)ccc(N(C)C(=O)Cc4ccc(C(=O)c5ccccc5)s4)c3Cl)c2n1` [Compound 109, 2-(5-Benzoyl-thiophen-2-yl)-N-[2,4-dichloro-3-(2-methyl-quinolin-8-yloxymethyl)-phenyl]-N-methyl-acetamide], the Ki was determined as 0.053 µM. In the case of `Cc1ccc2cccc(OCc3c(Cl)ccc(N(C)C(=O)Cc4cc(C(=O)c5ccc(C#N)cc5)cs4)c3Cl)c2n1` [Compound 115, 2-[4-(4-Cyano-benzoyl)-thiophen-2-yl]-N-[2,4-dichloro-3-(2-methyl-quinolin-8-yloxymethyl)-phenyl]-N-methyl-acetamide] it was 0.0064 µM; in that of `Cc1ccc2cccc(OCc3cccc(N(C)C(=O)Cc4ccc(C(=O)c5cccc(C#N)c5)n4C)c3Cl)c2n1` [Compound 116, N-[2-Chloro-3-(2-methyl-quinolin-8-yloxymethyl)-phenyl]-2-[5-(3-cyanobenzoyl)-1-methyl-1 H-pyrrol-2-yl]-N-methyl-acetamide], 17.6 µM. With `Cc1ccc2cccc(OCc3c(Cl)ccc(N(C)C(=O)Cc4ccc(C(=O)c5ccc(N(C)C)cc5)n4C)c3Cl)c2n1` [Compound 118, N-[2,4-Dichloro-3-(2-methyl-quinolin-8-yloxymethyl)-phenyl]-2-[5-(4-dimethylamino-benzoyl)-1-methyl-1H-pyrrol-2-yl]-N-methyl-acetamide] the figure was 0.428 µM.
